Experimental data as given in ChEMBL document CHEMBL1909046, “DrugMatrix in vitro pharmacology data”.

Key:
[1] = target: Sodium-dependent noradrenaline transporter (Homo sapiens, UniProt P23975); test: DRUGMATRIX: Norepinephrine Transporter radioligand binding (ligand: [125I] RTI-55); type: cell membranes, MDCK, Membrane; settings: Not Active = under 50% inhibition at 10 µM; for Ki: read-out: Ki
[2] = target: T1, Calcitonin receptor (Homo sapiens, UniProt P30988); type: cell membranes, Membrane; settings: t47d; further: in other assays of this panel Not Active means under 50% inhibition at 10 µM
T1 sequence (P30988 whole entry): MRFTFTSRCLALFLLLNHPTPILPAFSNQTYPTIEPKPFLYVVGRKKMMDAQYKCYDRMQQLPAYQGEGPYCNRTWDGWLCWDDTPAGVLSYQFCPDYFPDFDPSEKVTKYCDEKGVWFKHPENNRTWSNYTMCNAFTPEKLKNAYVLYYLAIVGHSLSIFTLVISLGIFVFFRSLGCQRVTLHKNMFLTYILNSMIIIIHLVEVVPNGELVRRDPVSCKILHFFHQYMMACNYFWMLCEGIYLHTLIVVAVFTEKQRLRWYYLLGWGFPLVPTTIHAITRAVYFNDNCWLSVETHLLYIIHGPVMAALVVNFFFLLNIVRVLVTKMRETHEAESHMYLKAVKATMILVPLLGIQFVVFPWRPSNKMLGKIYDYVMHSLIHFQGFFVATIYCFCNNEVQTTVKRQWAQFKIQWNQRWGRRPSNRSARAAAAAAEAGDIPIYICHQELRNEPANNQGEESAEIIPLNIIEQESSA

[3] = target: T2, D(4) dopamine receptor (Homo sapiens, UniProt P21917); test: DRUGMATRIX: Dopamine D4.2 radioligand binding (ligand: [3H] Spiperone); type: cell membranes, CHO-K1, Membrane; settings: cho-k1; Not Active = under 50% inhibition at 10 µM
T2 sequence (P21917 whole entry): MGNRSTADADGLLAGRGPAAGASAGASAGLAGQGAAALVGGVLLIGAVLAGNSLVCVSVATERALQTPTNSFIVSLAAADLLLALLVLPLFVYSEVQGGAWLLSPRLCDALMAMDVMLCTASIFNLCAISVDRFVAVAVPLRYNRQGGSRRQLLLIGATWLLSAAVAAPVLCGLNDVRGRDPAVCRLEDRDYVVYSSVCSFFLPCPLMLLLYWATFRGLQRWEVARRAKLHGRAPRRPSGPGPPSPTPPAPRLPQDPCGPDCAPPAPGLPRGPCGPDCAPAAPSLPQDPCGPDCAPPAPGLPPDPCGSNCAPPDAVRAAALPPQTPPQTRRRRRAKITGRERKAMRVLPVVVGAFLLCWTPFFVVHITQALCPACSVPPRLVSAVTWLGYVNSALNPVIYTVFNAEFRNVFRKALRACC

[4] = target: T3, Neuropeptide Y receptor type 2 (Homo sapiens, UniProt P49146); type: cell membranes, Membrane; settings: kan-ts; further: in other assays of this panel Not Active means under 50% inhibition at 10 µM
T3 sequence (P49146 whole entry): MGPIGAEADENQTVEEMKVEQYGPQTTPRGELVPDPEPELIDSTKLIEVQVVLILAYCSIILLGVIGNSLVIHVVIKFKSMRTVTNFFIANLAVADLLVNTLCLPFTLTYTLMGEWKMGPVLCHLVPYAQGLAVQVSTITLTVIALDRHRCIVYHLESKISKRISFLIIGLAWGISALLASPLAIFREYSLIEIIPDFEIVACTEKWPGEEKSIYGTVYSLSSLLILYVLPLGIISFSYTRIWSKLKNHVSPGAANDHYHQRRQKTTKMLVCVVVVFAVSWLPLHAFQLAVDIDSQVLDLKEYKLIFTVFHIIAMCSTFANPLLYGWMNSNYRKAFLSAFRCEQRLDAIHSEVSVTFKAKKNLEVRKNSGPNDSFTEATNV

[5] = target: Delta-type opioid receptor (Homo sapiens, UniProt P41143); type: cell membranes, HEK293, Membrane; further: in other assays of this panel Not Active means under 50% inhibition at 10 µM
Delta-type opioid receptor, sequence (P41143 whole entry): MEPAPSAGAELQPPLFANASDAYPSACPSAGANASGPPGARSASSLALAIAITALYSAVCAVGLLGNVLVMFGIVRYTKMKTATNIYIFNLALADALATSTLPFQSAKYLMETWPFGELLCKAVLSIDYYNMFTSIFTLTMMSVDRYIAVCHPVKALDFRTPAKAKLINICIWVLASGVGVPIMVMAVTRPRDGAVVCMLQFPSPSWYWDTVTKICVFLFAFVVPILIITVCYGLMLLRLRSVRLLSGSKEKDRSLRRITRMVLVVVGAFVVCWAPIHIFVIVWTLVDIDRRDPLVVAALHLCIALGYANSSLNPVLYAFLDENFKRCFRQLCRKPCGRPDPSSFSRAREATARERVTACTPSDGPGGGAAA

[6] = target: T4, Adenosine receptor A3 (Homo sapiens, UniProt P0DMS8); type: cell membranes, CHO-K1, Membrane; settings: for Ki: read-out: Ki;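 on all read-outs here: radioligand binding assay with AB-MECA serving as the labeled ligand; in other assays of this panel Not Active means under 50% inhibition at 10 µM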
T4 sequence (P0DMS8 whole entry): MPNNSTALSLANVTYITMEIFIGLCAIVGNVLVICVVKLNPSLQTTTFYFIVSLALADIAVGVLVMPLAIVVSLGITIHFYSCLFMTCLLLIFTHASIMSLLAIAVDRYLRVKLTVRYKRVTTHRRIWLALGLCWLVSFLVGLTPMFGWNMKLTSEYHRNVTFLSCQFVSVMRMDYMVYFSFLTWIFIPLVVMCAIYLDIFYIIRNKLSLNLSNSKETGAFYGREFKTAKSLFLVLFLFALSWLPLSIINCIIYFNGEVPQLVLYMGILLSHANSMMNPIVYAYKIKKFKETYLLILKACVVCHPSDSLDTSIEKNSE

[7] = target: Cytochrome P450 2E1 (Homo sapiens, UniProt P05181); settings: bti-tn-5b1-4; further: in other assays of this panel Not Active means under 50% inhibition at 10 µM
Cytochrome P450 2E1, sequence (P05181 whole entry): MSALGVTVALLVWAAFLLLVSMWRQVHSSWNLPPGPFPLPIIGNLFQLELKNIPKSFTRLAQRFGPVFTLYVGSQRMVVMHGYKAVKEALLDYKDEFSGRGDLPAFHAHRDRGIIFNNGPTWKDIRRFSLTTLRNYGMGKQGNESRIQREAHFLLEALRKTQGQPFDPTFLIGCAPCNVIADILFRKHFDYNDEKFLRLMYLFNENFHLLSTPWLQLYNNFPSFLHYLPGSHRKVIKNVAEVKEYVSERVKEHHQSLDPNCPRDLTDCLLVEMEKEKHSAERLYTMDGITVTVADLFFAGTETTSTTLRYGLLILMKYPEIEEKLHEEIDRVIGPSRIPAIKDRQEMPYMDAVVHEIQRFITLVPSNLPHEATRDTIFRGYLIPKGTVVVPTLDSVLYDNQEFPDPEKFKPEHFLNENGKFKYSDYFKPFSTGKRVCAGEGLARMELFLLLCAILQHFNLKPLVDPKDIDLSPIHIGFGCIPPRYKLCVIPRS

Sodium-dependent noradrenaline transporter, sequence (P23975 whole entry): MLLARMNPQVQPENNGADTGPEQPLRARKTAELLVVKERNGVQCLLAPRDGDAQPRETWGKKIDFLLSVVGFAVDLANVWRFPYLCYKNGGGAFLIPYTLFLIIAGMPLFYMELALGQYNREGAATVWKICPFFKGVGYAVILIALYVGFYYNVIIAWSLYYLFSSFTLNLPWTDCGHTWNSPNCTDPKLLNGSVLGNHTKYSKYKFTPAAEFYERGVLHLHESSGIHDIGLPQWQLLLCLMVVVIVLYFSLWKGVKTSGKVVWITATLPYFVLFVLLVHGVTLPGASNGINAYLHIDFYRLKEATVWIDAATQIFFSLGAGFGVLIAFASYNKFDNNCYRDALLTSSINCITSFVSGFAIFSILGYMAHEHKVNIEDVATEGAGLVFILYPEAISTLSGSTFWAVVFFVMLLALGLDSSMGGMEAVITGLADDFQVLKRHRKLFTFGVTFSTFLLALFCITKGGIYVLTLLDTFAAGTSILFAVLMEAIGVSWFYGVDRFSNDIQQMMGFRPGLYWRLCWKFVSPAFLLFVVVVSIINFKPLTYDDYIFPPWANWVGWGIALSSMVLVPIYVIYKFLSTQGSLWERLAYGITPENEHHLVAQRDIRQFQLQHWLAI

C[C@H]1C[C@H]2[C@@H]3CCC4=CC(=O)C=C[C@]4(C)[C@@]3(F)[C@@H](O)C[C@]2(C)[C@@]1(O)C(=O)CO [BETAMETHASONE]
IC50 ([1]; mdck): Not Active | IC50 [2]: Not Active | IC50 [3]: Not Active | IC50 [4]: Not Active | IC50 ([5]; hek293): Not Active | IC50 ([6]; cho-k1): Not Active | IC50 [7]: Not Active | Ki [7]: Not Active

Oc1ccccc1 [PHENOL]
IC50 ([1]; mdck): Not Active | IC50 [2]: Not Active | IC50 [3]: Not Active | IC50 [4]: Not Active | IC50 ([5]; hek293): Not Active | IC50 ([6]; cho-k1): Not Active | IC50 [7]: Not Active | Ki [7]: Not Active

C[C@H](C(=O)O)c1ccc2oc(-c3ccc(F)cc3)nc2c1 [FLUNOXAPROFEN]
IC50 ([1]; mdck): Not Active | IC50 [2]: Not Active | IC50 [3]: Not Active | IC50 [4]: Not Active | IC50 ([5]; hek293): Not Active | IC50 ([6]; cho-k1): Not Active | IC50 [7]: Not Active | Ki [7]: Not Active

C[C@@H]1[C@H](O)[C@@H](C)/C=C/C=C/C=C/C=C/C=C/C=C/C=C/[C@H](O[C@@H]2O[C@H](C)[C@@H](O)[C@H](N)[C@@H]2O)C[C@@H]2O[C@](O)(C[C@@H](O)C[C@@H](O)[C@H](O)CC[C@@H](O)C[C@@H](O)CC(=O)O[C@H]1C)C[C@H](O)[C@H]2C(=O)O [AMPHOTERICIN B]
IC50 ([1]; mdck): Not Active | IC50 [2]: Not Active | IC50 [3]: Not Active | IC50 [4]: Not Active | IC50 ([5]; hek293): Not Active | IC50 ([6]; cho-k1): Not Active | IC50 [7]: Not Active | Ki [7]: Not Active

COc1cc(NC(C)CCCN)c2ncccc2c1 (stereo unspecified) [PRIMAQUINE]
IC50 ([1]; mdck): Not Active | IC50 [2]: Not Active | IC50 [3]: Not Active | IC50 [4]: Not Active | IC50 ([5]; hek293): Not Active | IC50 ([6]; cho-k1): Not Active | IC50 [7]: Not Active | Ki [7]: Not Active

COc1cc(/C=C/C(=O)O)ccc1O [FERULATE]
IC50 ([1]; mdck): Not Active | IC50 [2]: Not Active | IC50 [3]: Not Active | IC50 [4]: Not Active | IC50 ([5]; hek293): Not Active | IC50 ([6]; cho-k1): Not Active | IC50 [7]: Not Active | Ki [7]: Not Active

CNC[C@H](O)c1ccc(O)c(O)c1 [EPINEPHRINE]
IC50 ([1]; mdck): Not Active | IC50 [2]: Not Active | IC50 [3]: Not Active | IC50 [4]: Not Active | IC50 ([5]; hek293): Not Active | IC50 ([6]; cho-k1): Not Active | IC50 [7]: Not Active | Ki [7]: Not Active

CCN1CCN(C(=O)N[C@@H](C(=O)N[C@@H]2C(=O)N3[C@@H]2SC(C)(C)[C@@H]3C(=O)O)c2ccccc2)C(=O)C1=O [PIPERACILLIN]
IC50 ([1]; mdck): Not Active | IC50 [2]: Not Active | IC50 [3]: Not Active | IC50 [4]: Not Active | IC50 ([5]; hek293): Not Active | IC50 ([6]; cho-k1): Not Active | IC50 [7]: Not Active | Ki [7]: Not Active

c1ccc2c(c1)Nc1ccccc1S2 [PHENOTHIAZINE]
IC50 ([1]; read-out: IC50): 0.461 µM | Ki [1]: 0.457 µM | IC50 [2]: Not Active | IC50 [3]: Not Active | IC50 [4]: Not Active | IC50 ([5]; hek293): Not Active | IC50 ([6]; read-out: IC50): 25.6 µM | Ki [6]: 14.5 µM | IC50 [7]: Not Active | Ki [7]: Not Active

Cl.NC[C@H]1CC[C@H](C(=O)Oc2ccc(CCC(=O)O)cc2)CC1 [CETRAXATE HYDROCHLORIDE]
IC50 ([1]; mdck): Not Active | IC50 [2]: Not Active | IC50 [3]: Not Active | IC50 [4]: Not Active | IC50 ([5]; hek293): Not Active | IC50 ([6]; cho-k1): Not Active | IC50 [7]: Not Active | Ki [7]: Not Active

CN(CCOc1ccc(C[C@H](Nc2ccccc2C(=O)c2ccccc2)C(=O)O)cc1)c1ccccn1
IC50 ([1]; read-out: IC50): 40.3 µM | Ki [1]: 40 µM | IC50 [2]: Not Active | IC50 [3]: Not Active | IC50 [4]: Not Active | IC50 ([5]; read-out: IC50): 3.21 µM | Ki ([5]; read-out: Ki): 1.13 µM | IC50 ([6]; read-out: IC50): 14.3 µM | Ki [6]: 8.09 µM | IC50 [7]: Not Active | Ki [7]: Not Active

Nc1nc(F)nc2c1ncn2[C@@H]1O[C@H](CO)[C@@H](O)[C@@H]1O [FLUDARABINE]
IC50 ([1]; mdck): Not Active | IC50 [2]: Not Active | IC50 [3]: Not Active | IC50 [4]: Not Active | IC50 ([5]; hek293): Not Active | IC50 ([6]; cho-k1): Not Active | IC50 [7]: Not Active | Ki [7]: Not Active
